Patent US12428406B2 (PMV Pharmaceuticals, Inc., priority 2019, dated 2025)

Target: T1, p53 Y220C (Homo sapiens, UniProt P04637, Y220C)
T1 construct: The recombinant protein was a truncation mutant containing only amino acids 94-312 of p53; made in house; host or cells: E. coli
Assay: In vitro DNA binding activity assay (HTRF / TR-FRET): stabilization of p53 Y220C and increase of its DNA binding activity
Type: biochemical
Conditions: recombinant His-tagged p53 Y220C DNA binding domain (aa 94-312), biotin-labeled consensus DNA, incubated at 27° C. or 29° C. for 60 min
Summary of the method: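 Compound effect on DNA binding of recombinant His-p53 Y220C (E. coli) to biotin-labeled consensus DNA, expressed as SC150, the concentration giving 50% increase versus untreated. Serial 3-fold DMSO dilutions of 4.5 mM stocks; room-temperature steps of 15 then 20 min.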

T1 sequence (P04637 94-312, change not shown): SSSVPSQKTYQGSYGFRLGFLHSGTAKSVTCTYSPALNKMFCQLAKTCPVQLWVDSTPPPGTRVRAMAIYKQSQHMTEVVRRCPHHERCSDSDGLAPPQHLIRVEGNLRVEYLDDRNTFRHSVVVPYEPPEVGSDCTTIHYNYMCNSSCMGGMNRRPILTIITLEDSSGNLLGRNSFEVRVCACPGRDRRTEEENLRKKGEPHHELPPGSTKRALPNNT

SMILES	SC150 (concentration of the compound required to increase the DNA binding activity by 50%)
COc1cc(C(C)(C)C#N)ccc1NCC#Cc1cc2c(N[C@H]3CC[C@H](N(C)C)CC3)cccc2n1CC(F)(F)F [Compound 121A, 2-(3-methoxy-4-{[3-(4-{[(1R,4R)-4-(dimethylamino)cyclohexyl]amino}-1-(2,2,2-trifluoroethyl)-1H-indol-2-yl)prop-2-yn-1-yl]amino}phenyl)-2-methylpropanenitrile]	+ (+ = 0 μM ≤ SC150 < 0.05 μM)
CN(C)[C@H]1CC[C@H](Nc2cccc3c2cc(C#CCNc2ccc(S(N)(=O)=O)cc2OCC#N)n3CC(F)(F)F)CC1 [Compound 123A, 3-(cyanomethoxy)-4-{[3-(4-{[(1R,4R)-4-(dimethylamino)cyclohexyl]amino}-1-(2,2,2-trifluoroethyl)-1H-indol-2-yl)prop-2-yn-1-yl]amino}benzene-1-sulfonamide]	+ (+ = 0 μM ≤ SC150 < 0.05 μM)
CN(C)[C@H]1CC[C@H](Nc2cccc3c2cc(C#CCn2c(=O)oc4cc(S(C)(=O)=O)ccc42)n3CC(F)(F)F)CC1 [Compound 125A, 3-(3-(4-(((1R,4R)-4-(dimethylamino)cyclohexyl)amino)-1-(2,2,2-trifluoroethyl)-1H-indol-2-yl)prop-2-yn-1-yl)-6-(methylsulfonyl)benzo[d]oxazol-2 (3H)-one]	++++ (++++ = 0.2 μM ≤ SC150 < 1 μM)
COc1cc(S(=O)(=O)N(C)C)ccc1NCC#Cc1cc2c(N[C@H]3CC[C@H](N(C)C)CC3)cccc2n1CC(F)(F)F [Compound 127A, 3-methoxy-N,N-dimethyl-4-{[3-(4-{[(1R,4R)-4-(dimethylamino)cyclohexyl]amino}-1-(2,2,2-trifluoroethyl)-1H-indol-2-yl)prop-2-yn-1-yl]amino}benzene-1-sulfonamide]	+ (+ = 0 μM ≤ SC150 < 0.05 μM)
COc1cc(Cl)ccc1NCC#Cc1cc2c(N[C@H]3CC[C@H](N(C)C)CC3)cccc2n1CC(F)(F)F [Compound 130A, (1R,4R)—N^4-(2-{3-[(4-chloro-2-methoxyphenyl)amino]prop-1-yn-1-yl}-1-(2,2,2-trifluoroethyl)-1H-indol-4-yl)-N^1,N^1-dimethylcyclohexane-1,4-diamine]	+ (+ = 0 μM ≤ SC150 < 0.05 μM)
COc1cc(C(F)(F)F)ccc1NCC#Cc1cc2c(N[C@H]3CC[C@H](N(C)C)CC3)cccc2n1CC(F)(F)F [Compound 134A, (1R,4R)—N^4-[2-(3-{[2-methoxy-4-(trifluoromethyl)phenyl]amino}prop-1-yn-1-yl)-1-(2,2,2-trifluoroethyl)-1H-indol-4-yl]-N^1,N^1-dimethylcyclohexane-1,4-diamine]	+ (+ = 0 μM ≤ SC150 < 0.05 μM)
Cc1cc(S(C)(=O)=O)ccc1NCC#Cc1cc2c(N[C@H]3CC[C@H](N(C)C)CC3)cccc2n1CC(F)(F)F [Compound 140A]	+ (+ = 0 μM ≤ SC150 < 0.05 μM)
CN(C)[C@H]1CC[C@H](Nc2cccc3c2cc(C#CCNc2ccc(S(C)(=O)=O)cc2OC(F)(F)F)n3CC(F)(F)F)CC1 [Compound 142A]	+ (+ = 0 μM ≤ SC150 < 0.05 μM)
COCCN(C)[C@H]1CC[C@H](Nc2cccc3c2cc(C#CCNc2ccc(S(C)(=O)=O)cc2OCC#N)n3CC(F)(F)F)CC1 [Compound 149A]	+ (+ = 0 μM ≤ SC150 < 0.05 μM)
COCCN(C)[C@H]1CC[C@@H](Nc2cccc3c2cc(C#CCNc2ccc(S(C)(=O)=O)cc2OCC#N)n3CC(F)(F)F)CC1 [Compound 150A]	+ (+ = 0 μM ≤ SC150 < 0.05 μM)
CNC(=O)c1ccc(NCC#Cc2cc3c(N[C@H]4CC[C@H](N(C)CCOC)CC4)cccc3n2CC(F)(F)F)c(OC)c1 [Compound 151A, 3-methoxy-N-methyl-4-{[3-(4-{[(1R,4R)-4-[(2-methoxyethyl) (methyl)amino]cyclo-hexyl]amino}-1-(2,2,2-trifluoroethyl)-1H-indol-2-yl)prop-2-yn-1-yl]amino}benzamide]	+ (+ = 0 μM ≤ SC150 < 0.05 μM)

Further lines, results first:

SC150 (concentration of the compound required to increase the DNA binding activity by 50%)	SMILES
+ (+ = 0 μM ≤ SC150 < 0.05 μM)	COc1cc(C(N)=O)c(F)cc1NCC#Cc1cc2c(N[C@H]3CC[C@H](N(C)C)CC3)cccc2n1CC(F)(F)F [Compound 132A, 4-((3-(4-(((1R,4R)-4-(dimethylamino)cyclohexyl)amino)-1-(2,2,2-trifluoroethyl)-1H-indol-2-yl)prop-2-yn-1-yl)amino)-2-fluoro-5-methoxybenzamide]
+ (+ = 0 μM ≤ SC150 < 0.05 μM)	CNC(=O)c1cc(OC)c(NCC#Cc2cc3c(N[C@H]4CC[C@H](N(C)C)CC4)cccc3n2CC(F)(F)F)cc1F [Compound 136A, 2-fluoro-5-methoxy-N-methyl-4-{[3-(4-{[(1R,4R)-4-(dimethylamino)cyclohexyl]amino}-1-(2,2,2-trifluoroethyl)-1H-indol-2-yl)prop-2-yn-1-yl]amino}benzamide]
+++ (+++ = 0.1 μM ≤ SC150 < 0.2 μM)	CN(C)[C@H]1CC[C@@H](Nc2cccc3c2cc(C#CCNc2ccc(S(C)(=O)=O)cc2C(F)(F)F)n3CC(F)(F)F)CC1 [Compound 138A, (1S,4S)-N^4-[2-(3-{[4-methanesulfonyl-2-(trifluoromethyl)phenyl]amino}prop-1-yn-1-yl)-1-(2,2,2-trifluoroethyl)-1H-indol-4-yl]-N^1,N^1-dimethylcyclohexane-1,4-diamine]
+ (+ = 0 μM ≤ SC150 < 0.05 μM)	CN(C)[C@H]1CC[C@H](Nc2cccc3c2cc(C#CCNc2ccc(S(C)(=O)=O)cc2C(F)(F)F)n3CC(F)(F)F)CC1 [Compound 139A, (1R,4R)-N^4-[2-(3-{[4-methanesulfonyl-2-(trifluoromethyl)phenyl]amino}prop-1-yn-1-yl)-1-(2,2,2-trifluoroethyl)-1H-indol-4-yl]-N^1,N^1-dimethylcyclohexane-1,4-diamine]
+ (+ = 0 μM ≤ SC150 < 0.05 μM)	CCN(CC)[C@H]1CC[C@H](Nc2cccc3c2cc(C#CCNc2ccc(C(=O)NC)cc2OC)n3CC(F)(F)F)CC1 [Compound 144A, 3-methoxy-N-methyl-4-{[3-(4-([(1R,4R)-4-(diethylamino)cyclohexyl]amino}-1-(2,2,2-trifluoro-ethyl)-1H-indol-2-yl)prop-2-yn-1-yl]amino}benzamide]
+ (+ = 0 μM ≤ SC150 < 0.05 μM)	CCN(CC)[C@H]1CC[C@H](Nc2cccc3c2cc(C#CCNc2ccc(S(N)(=O)=O)cc2OC)n3CC(F)(F)F)CC1 [Compound 146A, 3-methoxy-4-{[3-(4-{[(1R,4R)-4-(diethyl-amino)cyclohexyl]amino}-1-(2,2,2-trifluoroethyl)-1H-indol-2-yl)prop-2-yn-1-yl]amino}benzene-1-sulfonamide]
+ (+ = 0 μM ≤ SC150 < 0.05 μM)	CCN(CC)[C@H]1CC[C@H](Nc2cccc3c2cc(C#CCNc2ccc(S(=O)(=O)NC)cc2OC)n3CC(F)(F)F)CC1 [Compound 148A, 3-methoxy-N-methyl-4-{[3-(4-{[(1R,4R)-4-(diethylamino)cyclohexyl]amino}-1-(2,2,2-trifluoroethyl)-1H-indol-2-yl)prop-2-yn-1-yl]amino}benzene-1-sulfonamide]
